Results taken from ChEMBL document CHEMBL1148196, “Isoprenoids of the soft coral Sarcophyton glaucum: Nyalolide, a new biscembranoid, and other terpenoids” (2004).

Experiments:
Assay type in all cases: functional
[1] = tested on: SK-MEL-28; test: Cytotoxicity against human SK-MEL-28 cells
[2] = tested on: A549; test: Cytotoxicity against human A549 cells
[3] = tested on: HT-29; test: Cytotoxicity against human HT29 cells
[4] = tested on: P388; test: Cytotoxicity against mouse P388 cells

Measured: GI50

COC(=O)/C1=C\CC/C(C)=C/[C@@H]2OC(=O)C(C)=C2C[C@H](OC(C)=O)/C(C)=C/CC1
10 µM: all assays above

CC(C)=C1C=C2[C@@H](CC[C@@H]2C)[C@@H](C)CC1=O [GUAIACOPHINE]
10 µM: all assays above

COC(=O)[C@]12CC(=O)[C@H](C(C)C)CC(=O)[C@H](C)CCC[C@H](C)CC(=O)[C@H]1CC(C)=C1C[C@H](OC(C)=O)[C@](C)(O)[C@H]3CC[C@@](C)(O)[C@H](CC/C(C)=C/[C@@H]12)O3 [NYALOLIDE]
10 µM: all assays above
